# Test results published in PubChem BioAssay (NCI).
#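 In this assay, cells in 96-well plates receive the compound at five concentrations for 48 hours. Endpoints are linearly interpolated between the surrounding concentrations. GI50 = concentration required for 50% inhibition of growth. TGI denotes the concentration required for complete inhibition of growth.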
# Assays:
# Test in all cases: growth of human tumour cells (NCI), 48 h
# NCI-H23 lung = tested on: NCI-H23 lung
# NCI-H460 lung = tested on: NCI-H460 lung
# NCI-H522 lung = tested on: NCI-H522 lung
# NCI/ADR-RES ovarian = tested on: NCI/ADR-RES ovarian
# OVCAR-3 ovarian = tested on: OVCAR-3 ovarian
# OVCAR-4 ovarian = tested on: OVCAR-4 ovarian
# OVCAR-5 ovarian = tested on: OVCAR-5 ovarian
# OVCAR-8 ovarian = tested on: OVCAR-8 ovarian
# PC-3 prostate = tested on: PC-3 prostate
# RPMI-8226 leukemia = tested on: RPMI-8226 leukemia
# RXF 393 renal = tested on: RXF 393 renal
# SF-268 CNS = tested on: SF-268 CNS
# SF-295 CNS = tested on: SF-295 CNS
# SF-539 CNS = tested on: SF-539 CNS
# SK-MEL-28 melanoma = tested on: SK-MEL-28 melanoma
# SK-MEL-5 melanoma = tested on: SK-MEL-5 melanoma
# SK-OV-3 ovarian = tested on: SK-OV-3 ovarian
# SN12C renal = tested on: SN12C renal
# SNB-19 CNS = tested on: SNB-19 CNS
# SNB-75 CNS = tested on: SNB-75 CNS
# SR leukemia = tested on: SR leukemia
# SW-620 colon = tested on: SW-620 colon
# T-47D breast = tested on: T-47D breast
# TK-10 renal = tested on: TK-10 renal
# UACC-257 melanoma = tested on: UACC-257 melanoma
# UACC-62 melanoma = tested on: UACC-62 melanoma
# UO-31 renal = tested on: UO-31 renal
smiles,measurement,setting,value
COc1cc(/C=C/C(=O)c2ccccc2)cc(OC)c1OC,TGI,NCI-H23 lung,23.3 µM
same,GI50,NCI-H460 lung,2.25 µM
same,TGI,NCI-H460 lung,5.91 µM
same,GI50,NCI-H522 lung,1.95 µM
same,TGI,NCI-H522 lung,3.88 µM
same,GI50,NCI/ADR-RES ovarian,3.38 µM
same,TGI,NCI/ADR-RES ovarian,15 µM
same,GI50,OVCAR-3 ovarian,4.02 µM
same,TGI,OVCAR-3 ovarian,12.9 µM
same,GI50,OVCAR-4 ovarian,4.53 µM
same,TGI,OVCAR-4 ovarian,19.4 µM
same,GI50,OVCAR-5 ovarian,3.95 µM
same,TGI,OVCAR-5 ovarian,16.6 µM
same,GI50,OVCAR-8 ovarian,2.95 µM
same,TGI,OVCAR-8 ovarian,11.8 µM
same,GI50,PC-3 prostate,4.54 µM
same,TGI,PC-3 prostate,17.9 µM
same,GI50,RPMI-8226 leukemia,2.38 µM
same,TGI,RPMI-8226 leukemia,6.29 µM
same,GI50,RXF 393 renal,3.11 µM
same,TGI,RXF 393 renal,11.5 µM
same,GI50,SF-268 CNS,4.2 µM
same,TGI,SF-268 CNS,17.5 µM
same,GI50,SF-295 CNS,10.3 µM
same,TGI,SF-295 CNS,24.2 µM
same,GI50,SF-539 CNS,2.96 µM
same,TGI,SF-539 CNS,10.1 µM
same,GI50,SK-MEL-28 melanoma,2.29 µM
same,TGI,SK-MEL-28 melanoma,5.75 µM
same,GI50,SK-MEL-5 melanoma,4.12 µM
same,TGI,SK-MEL-5 melanoma,15 µM
same,GI50,SK-OV-3 ovarian,4.42 µM
same,TGI,SK-OV-3 ovarian,13.8 µM
same,GI50,SN12C renal,2.94 µM
same,TGI,SN12C renal,10.9 µM
same,GI50,SNB-19 CNS,12.8 µM
same,TGI,SNB-19 CNS,26.8 µM
same,GI50,SNB-75 CNS,10.2 µM
same,TGI,SNB-75 CNS,22.2 µM
same,GI50,SR leukemia,2.33 µM
same,TGI,SR leukemia,6.68 µM
same,GI50,SW-620 colon,2.48 µM
same,TGI,SW-620 colon,7.2 µM
same,GI50,T-47D breast,3.93 µM
same,TGI,T-47D breast,20.9 µM
same,GI50,TK-10 renal,10.2 µM
same,TGI,TK-10 renal,22.2 µM
same,GI50,UACC-257 melanoma,3.7 µM
same,TGI,UACC-257 melanoma,15 µM
same,GI50,UACC-62 melanoma,2.23 µM
same,TGI,UACC-62 melanoma,5.7 µM
same,GI50,UO-31 renal,1.86 µM
same,TGI,UO-31 renal,3.78 µM
